Active and inactive are the calls of the source. How the calls were made is not given here.
System: CCRIS mutagenicity, Ames/micronucleus/aberration tests
Assay: CCRIS mutagenicity studies
[1] = Test System: AMES SALMONELLA TYPHIMURIUM, Strain/Indicator: TA98, Metabolic Activation: NONE, Method: STANDARD PLATE
[2] = Test System: AMES SALMONELLA TYPHIMURIUM, Strain/Indicator: TA100, Metabolic Activation: NONE, Method: PREINCUBATION
[3] = Test System: AMES SALMONELLA TYPHIMURIUM, Strain/Indicator: TA100, Metabolic Activation: NONE, Method: STANDARD PLATE
[4] = Test System: AMES SALMONELLA TYPHIMURIUM, Strain/Indicator: TA100, Metabolic Activation: RAT, LIVER, S-9, AROCLOR 1254, Method: STANDARD PLATE

Q: With `CCCCC(CC)COC(=O)CCCCC(=O)O` (configuration not stated) as the compound, how does the mutagenic call (Test System: AMES SALMONELLA TYPHIMURIUM, Strain/Indicator: TA97, Metabolic Activation: NONE, Method: STANDARD PLATE) read?
A: The mutagenic call was “inactive; negative”.

Q: What about the mutagenic call (Test System: AMES SALMONELLA TYPHIMURIUM, Strain/Indicator: TA97, Metabolic Activation: RAT, LIVER, S-9, AROCLOR 1254, Method: STANDARD PLATE) of the same compound?
A: Its mutagenic call is “inactive; negative”.

Q: What about the mutagenic call (Test System: AMES SALMONELLA TYPHIMURIUM, Strain/Indicator: TA97, Metabolic Activation: RAT, LIVER, S-9, DI(2-ETHYLHEXYL)PHTHALATE, Method: STANDARD PLATE) of the same compound?
A: The mutagenic call was “inactive; negative”.

Q: What about the mutagenic call (Test System: AMES SALMONELLA TYPHIMURIUM, Strain/Indicator: TA98, Metabolic Activation: HAMSTER, LIVER, S-9, AROCLOR 1254 (10%), Method: PREINCUBATION) of the same compound?
A: Its mutagenic call is “inactive; negative”.

Q: What about the mutagenic call (Test System: AMES SALMONELLA TYPHIMURIUM, Strain/Indicator: TA98, Metabolic Activation: NONE, Method: PREINCUBATION) of the same compound?
A: Its mutagenic call is “inactive; negative”.

Q: And the mutagenic call [1]?
A: Its mutagenic call is “inactive; negative”.

Q: And the mutagenic call (Test System: AMES SALMONELLA TYPHIMURIUM, Strain/Indicator: TA98, Metabolic Activation: RAT, LIVER, S-9, AROCLOR 1254 (10%), Method: PREINCUBATION)?
A: Its mutagenic call is “inactive; negative”.

Q: And the mutagenic call (Test System: AMES SALMONELLA TYPHIMURIUM, Strain/Indicator: TA98, Metabolic Activation: RAT, LIVER, S-9, AROCLOR 1254, Method: STANDARD PLATE)?
A: The mutagenic call was “inactive; negative”.

Q: And the mutagenic call (Test System: AMES SALMONELLA TYPHIMURIUM, Strain/Indicator: TA98, Metabolic Activation: RAT, LIVER, S-9, DI(2-ETHYLHEXYL)PHTHALATE, Method: STANDARD PLATE)?
A: The mutagenic call was “inactive; negative”.

Q: What about the mutagenic call (Test System: AMES SALMONELLA TYPHIMURIUM, Strain/Indicator: TA100, Metabolic Activation: HAMSTER, LIVER, S-9, AROCLOR 1254 (10%), Method: PREINCUBATION) of the same compound?
A: The mutagenic call was “inactive; negative”.

Q: And the mutagenic call [2]?
A: Its mutagenic call is “inactive; negative”.

Q: What about the mutagenic call [3] of the same compound?
A: Its mutagenic call is “inactive; negative”.

Q: And the mutagenic call (Test System: AMES SALMONELLA TYPHIMURIUM, Strain/Indicator: TA100, Metabolic Activation: RAT, LIVER, S-9, AROCLOR 1254 (10%), Method: PREINCUBATION)?
A: Its mutagenic call is “inactive; negative”.

Q: And the mutagenic call [4]?
A: Its mutagenic call is “inactive; negative”.

Q: And the mutagenic call (Test System: AMES SALMONELLA TYPHIMURIUM, Strain/Indicator: TA100, Metabolic Activation: RAT, LIVER, S-9, DI(2-ETHYLHEXYL)PHTHALATE, Method: STANDARD PLATE)?
A: The mutagenic call was “inactive; negative”.

Q: And the mutagenic call (Test System: AMES SALMONELLA TYPHIMURIUM, Strain/Indicator: TA102, Metabolic Activation: NONE, Method: STANDARD PLATE)?
A: Its mutagenic call is “inactive; negative”.

Q: And the mutagenic call (Test System: AMES SALMONELLA TYPHIMURIUM, Strain/Indicator: TA102, Metabolic Activation: RAT, LIVER, S-9, AROCLOR 1254, Method: STANDARD PLATE)?
A: Its mutagenic call is “inactive; negative”.

Q: And the mutagenic call (Test System: AMES SALMONELLA TYPHIMURIUM, Strain/Indicator: TA102, Metabolic Activation: RAT, LIVER, S-9, DI(2-ETHYLHEXYL)PHTHALATE, Method: STANDARD PLATE)?
A: Its mutagenic call is “inactive; negative”.

Q: And the mutagenic call (Test System: AMES SALMONELLA TYPHIMURIUM, Strain/Indicator: TA1535, Metabolic Activation: HAMSTER, LIVER, S-9, AROCLOR 1254 (10%), Method: PREINCUBATION)?
A: Its mutagenic call is “inactive; negative”.

Q: What about the mutagenic call (Test System: AMES SALMONELLA TYPHIMURIUM, Strain/Indicator: TA1535, Metabolic Activation: NONE, Method: PREINCUBATION) of the same compound?
A: Its mutagenic call is “inactive; negative”.

Q: And the mutagenic call (Test System: AMES SALMONELLA TYPHIMURIUM, Strain/Indicator: TA1535, Metabolic Activation: RAT, LIVER, S-9, AROCLOR 1254 (10%), Method: PREINCUBATION)?
A: Its mutagenic call is “inactive; negative”.

Q: What about the mutagenic call (Test System: AMES SALMONELLA TYPHIMURIUM, Strain/Indicator: TA1537, Metabolic Activation: HAMSTER, LIVER, S-9, AROCLOR 1254 (10%), Method: PREINCUBATION) of the same compound?
A: The mutagenic call was “inactive; negative”.

Q: What about the mutagenic call (Test System: AMES SALMONELLA TYPHIMURIUM, Strain/Indicator: TA1537, Metabolic Activation: NONE, Method: PREINCUBATION) of the same compound?
A: Its mutagenic call is “inactive; negative”.

Q: What about the mutagenic call (Test System: AMES SALMONELLA TYPHIMURIUM, Strain/Indicator: TA1537, Metabolic Activation: RAT, LIVER, S-9, AROCLOR 1254 (10%), Method: PREINCUBATION) of the same compound?
A: The mutagenic call was “inactive; negative”.

Q: Which mutagenic call [1] does the source give for `C=C(C)C1CCC(=C)C2C3=C(C[C@H](C)C3=O)C(=O)C(C)=C[C@@H]12` (some centres not stated) here?
A: The mutagenic call was “inactive; negative”.

Q: And the mutagenic call (Test System: AMES SALMONELLA TYPHIMURIUM, Strain/Indicator: TA98, Method: STANDARD PLATE)?
A: The mutagenic call was “inactive; negative”.

Q: What about the mutagenic call [3] of the same compound?
A: The mutagenic call was “inactive; negative”.

Q: And the mutagenic call (Test System: AMES SALMONELLA TYPHIMURIUM, Strain/Indicator: TA100, Method: STANDARD PLATE)?
A: Its mutagenic call is “inactive; negative”.

Q: With `CC(=O)C(=O)c1ccccc1` as the compound, how does the mutagenic call [3] read?
A: Its mutagenic call is “inactive; negative”.

Q: Which results are given for `C[C@H](CCC(=O)O)[C@H]1CC[C@H]2[C@@H]3[C@@H](O)C[C@@H]4C[C@H](O)CC[C@]4(C)[C@H]3CC[C@]12C`?
A: mutagenic call (Test System: AMES SALMONELLA TYPHIMURIUM, Strain/Indicator: TA98, Metabolic Activation: NONE, Method: FLUCTUATION TEST): active; positive; mutagenic call (Test System: AMES SALMONELLA TYPHIMURIUM, Strain/Indicator: TA100, Metabolic Activation: NONE, Method: FLUCTUATION TEST): inactive; negative; mutagenic call [3]: inactive; negative; mutagenic call [4]: inactive; negative

Q: For `Nc1ccc([N+](=O)[O-])c(O)c1`, which mutagenic call [1] is on record?
A: Its mutagenic call is “inactive; negative”.

Q: And the mutagenic call [3]?
A: The mutagenic call was “inactive; negative”.

Q: And the mutagenic call [4]?
A: Its mutagenic call is “inactive; negative”.

Q: What about the mutagenic call (Test System: AMES SALMONELLA TYPHIMURIUM, Strain/Indicator: TA1535, Metabolic Activation: NONE, Method: STANDARD PLATE) of the same compound?
A: The mutagenic call was “inactive; negative”.

Q: And the mutagenic call (Test System: AMES SALMONELLA TYPHIMURIUM, Strain/Indicator: TA1535, Metabolic Activation: RAT, LIVER, S-9, AROCLOR 1254, Method: STANDARD PLATE)?
A: Its mutagenic call is “inactive; negative”.

Q: And the mutagenic call (Test System: AMES SALMONELLA TYPHIMURIUM, Strain/Indicator: TA1537, Metabolic Activation: NONE, Method: STANDARD PLATE)?
A: Its mutagenic call is “inactive; negative”.

Q: And the mutagenic call (Test System: AMES SALMONELLA TYPHIMURIUM, Strain/Indicator: TA1537, Metabolic Activation: RAT, LIVER, S-9, AROCLOR 1254, Method: STANDARD PLATE)?
A: The mutagenic call was “inactive; negative”.

Q: And the mutagenic call (Test System: AMES SALMONELLA TYPHIMURIUM, Strain/Indicator: TA1538, Metabolic Activation: NONE, Method: STANDARD PLATE)?
A: Its mutagenic call is “inactive; negative”.

Q: Which mutagenic call (Test System: AMES SALMONELLA TYPHIMURIUM, Strain/Indicator: TA98, Metabolic Activation: NONE, Method: 0-1000 UG/PLATE) does the source give for `O=C(Cl)c1ccccc1` here?
A: Its mutagenic call is “active; positive”.

Q: And the mutagenic call (Test System: AMES SALMONELLA TYPHIMURIUM, Strain/Indicator: TA98, Metabolic Activation: RAT LIVER S-9, PCB, Method: PREINCUBATION)?
A: Its mutagenic call is “active; positive”.

Q: And the mutagenic call [2]?
A: The mutagenic call was “active; positive”.

Q: And the mutagenic call [3]?
A: Its mutagenic call is “active; positive”.

Q: What about the mutagenic call (Test System: AMES SALMONELLA TYPHIMURIUM, Strain/Indicator: TA100, Metabolic Activation: RAT LIVER S-9, PCB, Method: PREINCUBATION) of the same compound?
A: The mutagenic call was “active; positive”.

Q: And the mutagenic call (Test System: AMES SALMONELLA TYPHIMURIUM, Strain/Indicator: TA104, Metabolic Activation: NONE, Method: PREINCUBATION)?
A: The mutagenic call was “active; positive”.

Q: What about the mutagenic call (Test System: AMES SALMONELLA TYPHIMURIUM, Strain/Indicator: TA104, Metabolic Activation: RAT LIVER S-9, PCB, Method: PREINCUBATION) of the same compound?
A: Its mutagenic call is “active; positive”.

Q: And the mutagenic call (Test System: E.COLI, Strain/Indicator: WP2 UVRA, Metabolic Activation: NONE, Method: PREINCUBATION)?
A: Its mutagenic call is “active; positive”.

Q: And the mutagenic call (Test System: E.COLI, Strain/Indicator: WP2 UVRA, Metabolic Activation: RAT LIVER S-9, PCB, Method: PREINCUBATION)?
A: The mutagenic call was “active; positive”.

Q: For `CC(=O)N[C@@H](CS/C(Cl)=C/Cl)C(=O)O`, which mutagenic call (Test System: AMES SALMONELLA TYPHIMURIUM, Strain/Indicator: TA2638, Metabolic Activation: NONE, Method: PREINCUBATION) is on record?
A: The mutagenic call was “active; positive”.

Q: What about the mutagenic call (Test System: AMES SALMONELLA TYPHIMURIUM, Strain/Indicator: TA2638, Metabolic Activation: RAT, KIDNEY, CYTOSOL, Method: PREINCUBATION) of the same compound?
A: Its mutagenic call is “active; positive”.
